Source: US11339171B2, “MDM2 inhibitors” (Gan & Lee Pharmaceuticals, priority 2017, dated 2022)

Legend:
[1] = target: T1, MDM2 (Homo sapiens, UniProt Q00987); assay: Inhibition test of MDM2-P53 (GST-MDM2, Biotin-P53, Anti-GST-Tb, SA-XL665); format: binding
T1 construct: made in house
In short: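 Binding was measured by TR-FRET with GST-MDM2 at 4 nM final in PBS with 0.1% BSA, 5 mM DTT and 1 mM AEBSF. Compounds were tested as twelve-point 5-fold dilutions and incubated with the detection mix for 90 min at 25 °C with shaking before plate-reader reading and curve fitting.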

[2] = system: human osteosarcoma cell line SJSA-1; assay: Inhibition of proliferation of human osteosarcoma cell line SJSA-1 (DAPI staining, In Cell Analyzer); conditions: Homo sapiens, SJSA-1, 72 h, read-out: IC50 (nM), inhibitory activity on proliferation of human osteosarcoma cell line SJSA-1, SJSA-1, incubated 72 h

T1 sequence (Q00987 whole entry): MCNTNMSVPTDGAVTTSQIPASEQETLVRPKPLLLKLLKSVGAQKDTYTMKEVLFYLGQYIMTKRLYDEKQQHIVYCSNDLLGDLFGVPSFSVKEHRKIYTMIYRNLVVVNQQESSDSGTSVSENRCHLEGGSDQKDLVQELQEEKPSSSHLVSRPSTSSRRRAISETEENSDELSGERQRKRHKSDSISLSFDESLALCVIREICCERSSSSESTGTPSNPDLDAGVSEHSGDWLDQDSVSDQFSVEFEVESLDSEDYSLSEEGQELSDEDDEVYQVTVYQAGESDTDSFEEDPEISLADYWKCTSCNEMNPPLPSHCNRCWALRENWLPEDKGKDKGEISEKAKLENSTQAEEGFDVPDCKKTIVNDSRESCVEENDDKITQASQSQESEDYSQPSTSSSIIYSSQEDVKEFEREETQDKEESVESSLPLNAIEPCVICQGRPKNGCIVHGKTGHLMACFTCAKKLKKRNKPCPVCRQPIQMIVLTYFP

For `COc1ccc(C)cc1-c1nc2c(n1C(C)C)[C@@]1(C(=O)Nc3cc(Cl)ccc31)N(c1cc(Cl)ccc1C)C2=O` [Example S-62, (S)-6-chloro-5′-(5-chloro-2-methylphenyl)-3′-isopropyl-2′-(2-methoxy-5-methylphenyl)-3′H-spiro[dihydroindole-3,4′-pyrrolo[3,4-d]imidazole]-2,6′(5′H)-dione], which IC50 [1] is on record?
Its IC50 is 1.61 nM.

And the IC50 [2]?
The IC50 was 10.5 nM.

With `COc1ccc(N2C(=O)c3nc(-c4ccccc4OC)n(C(C)C)c3[C@@]23C(=O)Nc2cc(Cl)ccc23)cc1Cl` [Example S-63, (S)-6-chloro-5′-(3-chloro-4-methoxyphenyl)-3′-isopropyl-2′-(2-methoxyphenyl)-3′H-spiro[dihydroindole-3,4′-pyrrolo[3,4-d]imidazole]-2,6′(5′H)-dione] as the compound, how does the IC50 [1] read?
Its IC50 is 1.16 nM.

And the IC50 [2]?
The IC50 was 77.6 nM.

How did the IC50 [1] turn out when `COc1ccc(-c2nc3c(n2C(C)C)[C@@]2(C(=O)Nc4cc(Cl)ccc42)N(c2cc(Cl)ccc2C)C3=O)cc1` [Example S-64, (S)-6-chloro-5′-(5-chloro-2-methylphenyl)-3′-isopropyl-2′-(4-methoxyphenyl)-3′H-spiro[dihydroindole-3,4′-pyrrolo[3,4-d]imidazole]-2,6′(5′H)-dione] was run?
The IC50 was 11.8 nM.

What about the IC50 [2] of the same compound?
Its IC50 is 726 nM.

With `COc1cc(N)ccc1-c1nc2c(n1C(C)C)[C@@]1(C(=O)Nc3cc(Cl)ccc31)N(c1cc(Cl)ccc1F)C2=O` [Example S-66, (S)-2′-(4-amino-2-methoxyphenyl)-6-chloro-5′-(5-chloro-2-fluorophenyl)-3′-isopropyl-3′H-spiro[dihydroindole-3,4′-pyrrolo[3,4-d]imidazole]-2,6′(5′H)-dione] as the compound, how does the IC50 [1] read?
The IC50 was 1.5 nM.

And the IC50 [2]?
Its IC50 is 39.6 nM.

How did the IC50 [1] turn out when `COc1cc(N)ccc1-c1nc2c(n1C(C)C)[C@@]1(C(=O)Nc3cc(Cl)ccc31)N(c1cc(F)cc(Cl)c1)C2=O` [Example S-67, (S)-2′-(4-amino-2-methoxyphenyl)-6-chloro-5′-(3-chloro-5-fluorophenyl)-3′-isopropyl-3′H-spiro[dihydroindole-3,4′-pyrrolo[3,4-d]imidazole]-2,6′(5′H)-dione] was run?
Its IC50 is 1.22 nM.

What about the IC50 [2] of the same compound?
The IC50 was 20.8 nM.

What does the source list for `COc1cc(C(=O)N(C)C)ccc1-c1nc2c(n1C(C)C)[C@@]1(C(=O)Nc3cc(Cl)ccc31)N(c1cc(Cl)ccc1C)C2=O` [Example S-68, (S)-4-(6-chloro-5′-(5-chloro-2-methylphenyl)-3′-isopropyl-2,6′-dioxo-5′,6′-dihydro-3′H-spiro[dihydroindole-3,4′-pyrrolo[3,4-d]imidazole]-2′-yl)-3-methoxy-N,N-dimethylbenzamide]?
IC50 [1]: 2.32 nM; IC50 [2]: 1700 nM

For `COc1ccc(CC(=O)N(C)C)cc1-c1nc2c(n1C(C)C)[C@@]1(C(=O)Nc3cc(Cl)ccc31)N(c1cc(Cl)ccc1C)C2=O` [Example S-70, (S)-2-(3-(6-chloro-5′-(5-chloro-2-methylphenyl)-3′-isopropyl-2,6′-dioxo-5′,6′-dihydro-3′H-spiro[dihydroindole-3,4′-pyrrolo[3,4-d]imidazole]-2′-yl)-4-methoxyphenyl)-N,N-dimethylacetamide], which IC50 [1] is on record?
Its IC50 is 0.94 nM.

What about the IC50 [2] of the same compound?
Its IC50 is 73.6 nM.

Which IC50 [1] does the source give for `COc1ccc(N2C(=O)c3nc(-c4ccc(N)cc4OC)n(C(C)C)c3[C@@]23C(=O)Nc2cc(Cl)ccc23)cc1Cl` [Example S-71, (S)-2′-(4-amino-2-methoxyphenyl)-6-chloro-5′-(3-chloro-4-methoxyphenyl)-3′-isopropyl-3′H-spiro[dihydroindole-3,4′-pyrrolo[3,4-d]imidazole]-2,6′(5′H)-dione] here?
The IC50 was 2.96 nM.

What about the IC50 [2] of the same compound?
Its IC50 is 292 nM.

What does the source list for `COc1cc(N)ccc1-c1nc2c(n1C(C)C)[C@@]1(C(=O)Nc3cc(Cl)ccc31)N(c1ccc(F)c(Cl)c1)C2=O` [Example S-73, (S)-2′-(4-amino-2-methoxyphenyl)-6-chloro-5′-(3-chloro-4-fluorophenyl)-3′-isopropyl-3′H-spiro[dihydroindole-3,4′-pyrrolo[3,4-d]imidazole]-2,6′(5′H)-dione]?
IC50 [1]: 1.1 nM; IC50 [2]: 251 nM

Which results are given for `COc1cc(N)c(C)cc1-c1nc2c(n1C(C)C)[C@@]1(C(=O)Nc3cc(Cl)ccc31)N(c1cc(Cl)ccc1C)C2=O` [Example S-74, (S)-2′-(4-amino-2-methoxy-5-methylphenyl)-6-chloro-5′-(5-chloro-2-methylphenyl)-3′-isopropyl-3′H-spiro[dihydroindole-3,4′-pyrrolo[3,4-d]imidazole]-2,6′(5′H)-dione]?
IC50 [1]: 0.98 nM; IC50 [2]: 7.85 nM

Which results are given for `COc1cc(N)c(F)cc1-c1nc2c(n1C(C)C)[C@@]1(C(=O)Nc3cc(Cl)ccc31)N(c1cc(Cl)ccc1C)C2=O` [Example S-75, (S)-2′-(4-amino-5-fluoro-2-methoxyphenyl)-6-chloro-5′-(5-chloro-2-methylphenyl)-3′-isopropyl-3′H-spiro[dihydroindole-3,4′-pyrrolo[3,4-d]imidazole]-2,6′(5′H)-dione]?
IC50 [1]: 0.97 nM; IC50 [2]: 9.84 nM

With `COc1c(F)cccc1-c1nc2c(n1C(C)C)[C@@]1(C(=O)Nc3cc(Cl)ccc31)N(c1cc(Cl)ccc1C)C2=O` [Example S-76, (S)-6-chloro-5′-(5-chloro-2-methylphenyl)-2′-(3-fluoro-2-methoxyphenyl)-3′-isopropyl-3′H-spiro[dihydroindole-3,4′-pyrrolo[3,4-d]imidazole]-2,6′(5′H)-dione] as the compound, how does the IC50 [1] read?
Its IC50 is 4.23 nM.

What about the IC50 [2] of the same compound?
The IC50 was 309 nM.

`COc1cc(C(N)=O)ccc1-c1nc2c(n1C(C)C)[C@@]1(C(=O)Nc3cc(Cl)ccc31)N(c1cc(Cl)ccc1C)C2=O` [Example S-77, (S)-4-(6-chloro-5′-(5-chloro-2-methylphenyl)-3′-isopropyl-2,6′-dioxo-5′,6′-dihydro-3′H-spiro[dihydroindole-3,4′-pyrrolo[3,4-d]imidazole]-2′-yl)-3-methoxybenzamide] was tested. Which IC50 [1] did it give?
The IC50 was 1.86 nM.

And the IC50 [2]?
The IC50 was 535 nM.

`COc1cc(N(C)C)c(F)cc1-c1nc2c(n1C(C)C)[C@@]1(C(=O)Nc3cc(Cl)ccc31)N(c1cc(Cl)ccc1C)C2=O` [Example S-78] was tested. Which IC50 [1] did it give?
Its IC50 is 1.42 nM.

What about the IC50 [2] of the same compound?
Its IC50 is 7.88 nM.

Which results are given for `COc1cccc(OC)c1-c1nc2c(n1C(C)C)[C@@]1(C(=O)Nc3cc(Cl)ccc31)N(c1cc(Cl)ccc1C)C2=O` [Example S-79, (S)-6-chloro-5′-(5-chloro-2-methylphenyl)-2′-(2,6-dimethoxyphenyl)-3′-isopropyl-3′H-spiro[dihydroindole-3,4′-pyrrolo[3,4-d]imidazole]-2,6′(5′H)-dione]?
IC50 [1]: 1.89 nM; IC50 [2]: 72.4 nM

`COc1ccc(-c2nc3c(n2C(C)C)[C@@]2(C(=O)Nc4cc(Cl)ccc42)N(c2cc(Cl)ccc2F)C3=O)c(OC)c1` [Example S-80, (S)-6-chloro-5′-(5-chloro-2-fluorophenyl)-2′-(2,4-dimethoxyphenyl)-3′-isopropyl-3′H-spiro[dihydroindole-3,4′-pyrrolo[3,4-d]imidazole]-2,6′(5′H)-dione] was tested. Which IC50 [1] did it give?
Its IC50 is 2.56 nM.

And the IC50 [2]?
The IC50 was 16.9 nM.

Which results are given for `COc1cc(N(C)C)ccc1-c1nc2c(n1C(C)C)[C@@]1(C(=O)Nc3cc(Cl)ccc31)N(c1cc(Cl)ccc1F)C2=O` [Example S-81, (S)-6-chloro-5′-(5-chloro-2-fluorophenyl)-2′-(4-(dimethylamino)-2-methoxyphenyl)-3′-isopropyl-3′H-spiro[dihydroindole-3,4′-pyrrolo[3,4-d]imidazole]-2,6′(5′H)-dione]?
IC50 [1]: 1.23 nM; IC50 [2]: 82.8 nM
